Assay [1] has as its target T1, human sphingosine-1-phosphate receptor 1 (S1P1) (Homo sapiens, UniProt P21453). The assay can be described thus: Inhibition of cAMP production (HTRF cAMP HiRange), S1P1 CHO-K1 cells. The following applies: for Emax: CHO-K1, efficacy normalized to maximum efficacy of fingolimod, read-out: hS1P1 CAMP SPAN; for EC50: read-out: hS1P1 CAMP pEC50 (converted). It is filed as cell-based. Summed up:
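CHO-K1 cells co-expressing human S1P1 (C-terminal ProLink tag) and EA-β-arrestin2, plated overnight; after 30 min compound incubation at 37 °C, intracellular cAMP measured by HTRF TR-FRET following 1 h at room temperature. Values normalized to fingolimod.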
Target sequence in this assay (P21453 whole entry): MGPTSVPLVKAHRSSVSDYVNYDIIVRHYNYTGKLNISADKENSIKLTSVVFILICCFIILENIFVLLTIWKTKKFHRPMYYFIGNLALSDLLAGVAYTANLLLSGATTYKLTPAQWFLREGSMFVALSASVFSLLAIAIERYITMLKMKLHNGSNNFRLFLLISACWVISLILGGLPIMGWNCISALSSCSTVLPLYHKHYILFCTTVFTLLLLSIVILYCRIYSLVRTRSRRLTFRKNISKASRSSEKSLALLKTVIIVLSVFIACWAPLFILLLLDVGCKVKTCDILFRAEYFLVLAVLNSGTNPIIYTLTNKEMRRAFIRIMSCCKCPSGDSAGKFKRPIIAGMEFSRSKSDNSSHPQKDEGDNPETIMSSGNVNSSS

For assay [2], the target named is T1, human sphingosine-1-phosphate receptor 1 (S1P1). Description: β-Arrestin2 recruitment assay (PathHunter), S1P1 CHO-K1 cells. It is filed as cell-based. Particulars: for Emax: efficacy normalized to maximum efficacy of fingolimod, read-out: hS1P1 B-arrestin2 SPAN; for EC50: β-arrestin2 recruitment, read-out: hS1P1 B-arrestin2 pEC50 (converted). Summed up: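 CHO-K1 cells co-expressing EA-β-arrestin2 and ProLink-tagged human S1P1 plated overnight, then stimulated 60 min at 37 °C. Enzyme-fragment complementation (β-galactosidase) detected after 1 h at room temperature by luminescence; values normalized to fingolimod.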
Target sequence in this assay (P21453 whole entry): as above
Target sequence in this assay (P32121 whole entry partner): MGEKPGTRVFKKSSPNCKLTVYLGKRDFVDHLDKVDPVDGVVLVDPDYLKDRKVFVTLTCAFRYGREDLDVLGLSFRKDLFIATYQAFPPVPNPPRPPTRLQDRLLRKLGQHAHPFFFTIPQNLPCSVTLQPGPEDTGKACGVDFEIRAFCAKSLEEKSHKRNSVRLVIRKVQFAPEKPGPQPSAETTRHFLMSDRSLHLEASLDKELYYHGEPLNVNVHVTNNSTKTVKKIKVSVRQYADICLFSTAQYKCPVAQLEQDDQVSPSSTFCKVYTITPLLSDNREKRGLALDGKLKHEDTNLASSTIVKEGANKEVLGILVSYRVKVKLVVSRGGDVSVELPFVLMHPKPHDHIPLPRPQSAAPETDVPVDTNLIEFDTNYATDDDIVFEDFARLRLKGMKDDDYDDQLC

Setting [3] is: inhibition of cAMP production, S1P1.
Setting [4] is: inhibition of cAMP production, potency.
Setting [5] is: CHO-K1, β-arrestin2 recruitment.

Consider `Cc1cnccc1-c1noc(-c2ccc3c(c2)nnn3CC(C)(C)O)n1` [Compound 597, 2-methyl-1-{5-[3-(3-methylpyridin-4-yl)-1,2,4-oxadiazol-5-yl]-1H-1,2,3-benzotriazol-1-yl}propan-2-ol], for which the Emax in assay [1] and in assay [2] (CHO-K1) was over 75% each time. Further, the EC50 in assay [1] (setting [3]) is under 316 nM; in assay [2] (S1P1), under 10 µM.
Consider `COc1ccc2oc(-c3ccc4c(c3)nnn4C(C)C)nc2c1` [Compound 425, 2-(1-isopropyl-1H-benzo[d][1,2,3]triazol-5-yl)-5-methoxy-benzo[d]oxazole], for which the Emax in assay [1] and in assay [2] (CHO-K1) was over 75% each time. The EC50 is under 316 nM in assay [1] (setting [3]) and under 10 µM in assay [2] (S1P1).
For `CCC1(CC)CC(=O)c2cc(-c3nc(-c4ccc(N(C)C)cc4)no3)ccc2O1` [Compound 60, 6-(3-(4-(dimethyl-amino)phenyl)-1,2,4-oxadiazol-5-yl)-2,2-diethylchroman-4-one], the Emax in assay [1] (inhibition of cAMP production) and in assay [2] (setting [5]) was under 75% throughout. The figures for the EC50 in assay [1] (setting [4]) and in assay [2] (potency) were over 316 nM and over 10 µM, respectively.
`CC(C)n1ccc2cc(-c3noc(-c4ccncc4F)n3)ccc21` [Compound 399, 5-(3-fluoropyridin-4-yl)-3-(1-isopropyl-1H-indol-5-yl)-1,2,4-oxadiazole]: the Emax in assay [1] was over 75%; in assay [2] (CHO-K1), under 75%. Further, the EC50 in assay [1] (setting [3]) was under 316 nM; in assay [2] (S1P1), under 10 µM.
The like results for `CCC1(CC)CC(=O)c2cc(-c3nc(-c4ccn[nH]4)no3)ccc2O1` [Compound 470, 6-(3-(1H-pyrazol-5-yl)-1,2,4-oxadiazol-5-yl)-2,2-diethyl-chroman-4-one] were, in that order, over 75%, over 75%, over 316 nM and over 10 µM.
In the case of `CCC1CC(=O)c2ccc(-c3nc(-c4ccncc4)no3)cc2O1` (centres unmarked) [Compound 589, 2-ethyl-7-[3-(pyridin-4-yl)-1,2,4-oxadiazol-5-yl]-3,4-dihydro-2H-1-benzopyran-4-one], the results for the Emax in assay [1] and in assay [2] (CHO-K1) were under 75% and over 75%, respectively. In addition, the EC50 is over 316 nM in assay [1] (setting [3]) and over 10 µM in assay [2] (S1P1).
Consider `Cc1nc2cc(-c3nnc(-c4ccc(NCC(F)F)c(C#N)c4)o3)ccc2[nH]1` [Compound 561, 2-[(2,2-difluoro-ethyl)amino]-5-[5-(2-methyl-1H-1,3-benzodiazol-5-yl)-1,3,4-oxadiazol-2-yl]benzonitrile], for which the Emax is over 75% in assay [1] and under 75% in assay [2] (CHO-K1). Further, the EC50 in assay [1] (setting [3]) was under 316 nM; in assay [2] (S1P1), under 10 µM.
In the case of `C=CCn1nc2ccc(-c3nc(-c4ccccc4)no3)cc2n1` [Compound 39, 5-(3-phenyl-1,2,4-oxadiazol-5-yl)-2-(prop-2-en-1-yl)-2H-1,2,3-benzotriazole], the Emax in assay [1] (inhibition of cAMP production) and in assay [2] (setting [5]) was under 75% throughout. Also, the values for the EC50 in assay [1] (setting [4]) and in assay [2] (potency) were over 316 nM and over 10 µM, respectively.
Consider `CCC1(CC)CC(=O)c2cc(-c3nc(-c4ccc5c(c4)CCC(=O)N5)no3)ccc2O1` [Compound 415, 6-(5-(2,2-diethyl-4-oxochroman-6-yl)-1,2,4-oxadiazol-3-yl)-3,4-dihydroquinolin-2(1H)-one], for which the Emax was under 75% in assay [1] and over 75% in assay [2] (CHO-K1). Also, the results for the EC50 in assay [1] (setting [3]) and in assay [2] (S1P1) were under 316 nM and over 10 µM, respectively.
As for `CCC1(CC)CC(=O)c2cc(-c3nc(-c4ccc(C(F)(F)F)nc4)no3)ccc2O1` [Compound 548, 2,2-diethyl-6-(3-(6-(trifluoromethyl)pyridin-3-yl)-1,2,4-oxadiazol-5-yl)chroman-4-one], the Emax in assay [1] and in assay [2] (CHO-K1) was under 75% each time. Also, the EC50 in assay [1] (setting [3]) is over 316 nM; in assay [2] (S1P1) it was over 10 µM.
Regarding `CCC1(CC)CC(=O)c2cc(-c3noc(-c4cccnc4)n3)ccc2O1` [Compound 559, 2,2-diethyl-6-(5-(pyridin-3-yl)-1,2,4-oxadiazol-3-yl)chroman-4-one], the Emax in assay [1] and in assay [2] (CHO-K1) was over 75% throughout. Moreover, the EC50 in assay [1] (setting [3]) was under 316 nM; in assay [2] (S1P1), under 10 µM.
Take `Fc1cc(-c2noc(-c3ccc4c(c3)nnn4C3CCCC3)n2)ccc1C(F)(F)F` [Compound 1, 1-cyclopentyl-5-{3-[3-fluoro-4-(trifluoro-methyl)phenyl]-1,2,4-oxadiazol-5-yl}-1H-1,2,3-benzotriazole]: the Emax in assay [1] (inhibition of cAMP production) and in assay [2] (setting [5]) was under 75% each time. Besides, the values for the EC50 in assay [1] (setting [4]) and in assay [2] (potency) were over 316 nM and over 10 µM, respectively.
In the case of `Cc1ccccc1-c1nc(-c2ccc3c(ccn3C(C)C)c2)no1` [Compound 389, 3-(1-isopropyl-1H-indol-5-yl)-5-(o-tolyl)-1,2,4-oxadiazole], the Emax in assay [1] and in assay [2] (CHO-K1) was over 75% in each case. Further, the EC50 is under 316 nM in assay [1] (setting [3]) and under 10 µM in assay [2] (S1P1).
As to `CCC1(CC)CC(=O)c2cc(-c3nc(-c4ccc5ncccc5c4)no3)ccc2O1` [Compound 521, 2,2-diethyl-6-(3-(quinolin-6-yl)-1,2,4-oxadiazol-5-yl)chroman-4-one], the Emax in assay [1] and in assay [2] (CHO-K1) was under 75% in each case. Further, the EC50 in assay [1] (setting [3]) is over 316 nM; in assay [2] (S1P1), over 10 µM.
For the molecule `CC(C)c1cc(-c2nc(-c3ccc4c(c3)nnn4C(C)C)no2)ccn1` [Compound 167, 3-(1-isopropyl-1H-benzo[d][1,2,3]triazol-5-yl)-5-(2-isopropyl-pyridin-4-yl)-1,2,4-oxadiazole], the Emax in assay [1] (inhibition of cAMP production) and in assay [2] (setting [5]) was under 75% in each case. The EC50 was over 316 nM in assay [1] (setting [4]) and over 10 µM in assay [2] (potency).
As to `Cc1ccc(-c2noc(-c3ccc4c(c3)nnn4C3CCCC3)n2)cc1` [Compound 164, 1-cyclopentyl-5-[3-(4-methylphenyl)-1,2,4-oxadiazol-5-yl]-1H-1,2,3-benzotriazole], the Emax in assay [1] (inhibition of cAMP production) and in assay [2] (setting [5]) was under 75% each time. Also, the EC50 was over 316 nM in assay [1] (setting [4]) and over 10 µM in assay [2] (potency).
In the case of `CC(C)n1nnc2cc(-c3nc(-c4ccc(COc5ccccc5)cc4)no3)ccc21` [Compound 49, 5-{3-[4-(phenoxy-methyl)phenyl]-1,2,4-oxadiazol-5-yl}-1-(propan-2-yl)-1H-1,2,3-benzotriazole], the Emax in assay [1] (inhibition of cAMP production) and in assay [2] (setting [5]) was under 75% in each case. The EC50 in assay [1] (setting [4]) was over 316 nM; in assay [2] (potency), over 10 µM.
In the case of `CCC1(CC)CC(=O)c2cc(-c3nc(-c4ccc5c(c4)nnn5C(C)C)no3)ccc2O1` [Compound 305, 2,2-diethyl-6-(3-(1-isopropyl-1H-benzo[d][1,2,3]triazol-5-yl)-1,2,4-oxadiazol-5-yl)chroman-4-one], the Emax in assay [1] (inhibition of cAMP production) is over 75%; in assay [2] (setting [5]), under 75%. Moreover, the EC50 in assay [1] (setting [4]) was over 316 nM; in assay [2] (potency), over 10 µM.
Consider `CC(C)n1ccc2cc(-c3noc(-c4ccccc4C(F)(F)F)n3)ccc21` [Compound 390, 3-(1-isopropyl-1H-indol-5-yl)-5-(2-(trifluoromethyl)phenyl)-1,2,4-oxadiazole], for which the results for the Emax in assay [1] and in assay [2] (CHO-K1) were over 75% and under 75%, respectively. For the same molecule, the EC50 in assay [1] (setting [3]) is under 316 nM; in assay [2] (S1P1) it was under 10 µM.
Turning to `CCC1(CC)CC(=O)c2cc(-c3nc(-c4cncc(N)c4)no3)ccc2O1` [Compound 502, 6-(3-(5-aminopyridin-3-yl)-1,2,4-oxadiazol-5-yl)-2,2-diethylchroman-4-one], the Emax in assay [1] and in assay [2] (CHO-K1) was over 75% each time. For the same molecule, the results for the EC50 in assay [1] (setting [3]) and in assay [2] (S1P1) were under 316 nM and under 10 µM, respectively.
